The values below come from patent US20070032502A1, “Quinazoline derivatives useful in cancer treatment” (Schering Corporation, priority 2005, published 2007).

Like-named read-outs stand apart in the source and are kept apart here.

The target of assay [1] is GST-p53 DNA binding domain (aa 92-aa 312) (Homo sapiens, UniProt P04637). In words: Scintillation Proximity Assay (SPA), displacement of 3H STANDARD COMPOUND
The following applies: for remaining activity at 2 µg/mL: 1 h. From the text:
Most of the oncogenic mutants of the tumor suppressor protein p53 lack sequence specific DNA binding activity at physiological temperature due to conformational changes in the DNA binding domain. Small molecules and peptide which bind to the p53 DNA binding domain stabilize the conformation and restore DNA binding activity to mutant p53 protein (Science 286, 2507-2510, 1999; PNAS, 99, 937-942, 2002). Using ^3H STANDARD COMPOUND (which is ^3H of the compound #1 of the present invention; the * Carbon atom is the one labeled; structure shown below), [drawing 2234] a radio labeled small molecule which binds to p53, and the GST-p53 DNA binding domain (aa 92-aa 312), we have developed a quantitative screening assay. The assay is based on Scintillation Proximity Assay (SPA) technology, developed by Amersham Biosciences to measure molecular interactions. Briefly, the complex of GST-p53, ^3H STANDARD and Glutathione-SPA beads (Amersham Biosciences) are incubated with mixing for 1 hr at room temperature in the presence of the novel compounds to be screened. The signal is read on Microbeta. The compounds which have the ability to displace ^3H STANDARD COMPOUND are selected. Such molecules will stabilize the conformation and restore DNA binding activity to mutant p53 protein.
The above assay was used to determine the ability of the compounds of this invention to restore DNA binding activity to mutant p53 and the results for selected compounds have been given above in various tables.
A letter rating corresponding to % Residual total binding (T) @ 2 ug/mL of drug (i.e., compound of the present invention) from this assay have been assigned as follows: Compounds having % Residual T values of from 0% to less than 20% have been assigned the letter “A”. Compounds having % Residual T values of from 20% to less than 40% have been assigned the letter “B”. Compounds having % Residual T values of from 40% to less than 80% have been assigned the letter “C”. Compounds having % Residual T values of 80% or higher have been assigned the letter “D”. The exact % Residual T values @ 2 ug/mL for some illustrative compounds are shown below: […]

Another assay relates to MB468. In words: Proliferation assay (Calcein AM viability, 72 hours). Type of assay: cell-based. The following applies: read-out: PROLIFERATION ASSAY EC50 MB468. The procedure:
This assay measures the growth suppression effects of small molecules in cells with mutant p53 vs. p53 null background. It uses Calcein AM to measure cellular viability. Cells (p53 null and mutant) are harvested and plated at 5000 cells per well in a 96-well tissue culture plate. The volume of cells in growth media is 100 µl. Serial dilutions (2× concentration) of compounds are then made and transferred to the plate of cells. The volume of compounds in the growth media is 100 μL. This dilution of compound with cells gives a 1× final dilution of compound (200 μL total volume). Plates are then incubated at 37° C. for 72 hours. Media is then poured off and Calcein AM is added at the appropriate concentration and the plates are incubated in the dark for 15 minutes and read for fluorescence. […] Compounds having EC50 values of 6 uM or higher have been assigned the letter “D”. These letter rating has been used throughout in the data tables above.

Setting [2] is: 2 ug/mL of drug, lower is better, read-out: % Residual T @ 2 ug/mL rating according to scintillation proximity assay (SPA).

GST-p53 DNA binding domain (aa 92-aa 312), sequence (P04637 92-312): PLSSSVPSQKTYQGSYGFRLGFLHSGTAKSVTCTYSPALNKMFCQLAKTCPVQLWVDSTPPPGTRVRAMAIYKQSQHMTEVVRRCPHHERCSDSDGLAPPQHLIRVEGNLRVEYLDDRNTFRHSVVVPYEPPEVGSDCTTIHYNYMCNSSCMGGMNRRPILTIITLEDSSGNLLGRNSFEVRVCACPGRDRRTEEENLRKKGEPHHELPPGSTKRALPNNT

In the case of `CN(C)CC[C@H](Nc1nc(CN2CCN(C(c3ccc(Cl)cc3)c3ccc(Cl)cc3)CC2)nc2ccccc12)C(N)=O` [Example 43, 2(S)-(−)-2-(2-{4-[BIS-(4-CHLOROPHENYL)METHYL]PIPERAZIN-1-YLMETHYL}QUINAZOLIN-4-YLAMINO)-4-DIMETHYLAMINOBUTYRAMIDE], the remaining activity at 2 µg/mL in assay [1] (setting [2]) lay within 40 to 80%. Take `COC(=O)[C@@H](Nc1nc(CN2CCN(C(=O)Nc3ccc(C(C)C)cc3)CC2)nc2ccccc12)C(C)C` [Example 20-29]: the “SPA Assay (% residual T @ 2 ug/mL of drug)” value in assay [1] (2 ug/mL of drug) was “B (Compounds having % Residual T values of from 20% to less than 40% have been assigned the letter “B”)”. Moreover, in assay [1] (2 ug/mL of drug, lower is better, read-out: SPA ASSAY % Residual T @ 2 ug/mL of drug (Average of)), the remaining activity at 2 µg/mL amounted to 39.5%. For the same molecule, the EC50 with MB468 (MB468 cells) is 4 to 6 µM.

Take `COc1ccc(/C=C/c2nc(NCCCN(C)C)c3ccccc3n2)cc1` [CP-31398, reference compound]: the EC50 in the assay on MB468 (72 h, MB468 cells, 72 hours) is 4.1 µM.

For the molecule `Clc1ccc(C(c2ccc(Cl)cc2)N2CCN(Cc3nc(N4CCN(c5ncccn5)CC4)c4ccccc4n3)CC2)cc1` [Example 30-17], in the assay with MB468 (MB468), the EC50 was over 6 µM. `O=C(C1CCCO1)N1CCN(c2nc(CN3CCN(C(c4ccc(Cl)cc4)c4ccc(Cl)cc4)CC3)nc3ccccc23)CC1` (centres unmarked) [Example 30-22]: the remaining activity at 2 µg/mL in assay [1] (read-out: SPA ASSAY (% residual T @ 2 ug/mL of drug)) is over 80%. Also, in the assay on MB468 (MB468), the EC50 is over 6 µM. Consider `CCOC(=O)[C@H](CCN(C)C)Nc1nc(CN2CCN(C(c3ccc(Cl)cc3)c3ccc(Cl)cc3)CC2)nc2ccccc12` [Example 44, 2(S)-(+)-2-(2-{4-[bis-(4-chlorophenyl)methyl]piperazin-1-ylmethyl}quinazoline-4-ylamino)-4-dimethylaminobutyric acid ethyl ester], for which the remaining activity at 2 µg/mL in assay [1] (setting [2]) was in the range of 40 to 80%. The same measure, in the same setting: the same measure for `CN(C)CCC[C@H](Nc1nc(CN2CCN(C(c3ccc(Cl)cc3)c3ccc(Cl)cc3)CC2)nc2ccccc12)C(N)=O` [Example 46, 2(S)-(+)-2-(2-{4-[BIS-(4-CHLOROPHENYL)METHYL]PIPERAZIN-1-YLMETHYL}QUINAZOLIN-4-YLAMINO)-5-DIMETHYLAMINOPENTANAMIDE]: over 80%. On to `Clc1ccc(C(c2ccc(Cl)cc2)N2CCN(Cc3nc(N4CCCCCC4)c4ccccc4n3)CC2)cc1` [Example 30-5], for which the EC50 in the assay with MB468 (MB468) is 2 to 4 µM. Still for that read-out and setting: the same measure for `Clc1ccc(C(c2ccc(Cl)cc2)N2CCN(Cc3nc(N4CCN(Cc5ccccc5)CC4)c4ccccc4n3)CC2)cc1` [Example 30-20]: 2 to 4 µM. Still for that read-out and setting: the same measure for `CN(CCC1C=Nc2ccccc21)c1nc(CN2CCN(C(c3ccc(Cl)cc3)c3ccc(Cl)cc3)CC2)nc2ccccc12` (centres unmarked) [Example 30-18]: 2 to 4 µM. Turning to `CN(C)CCCNc1nc(CN2CCN(C(c3ccccc3)c3ccc(OC(F)(F)F)cc3)CC2)nc2ccccc12` (centres unmarked) [Example 11-2], the EC50 in the assay with MB468 (72 h, MB468 cells, 72 hours) is 1.6 µM.

Turning to `Clc1ccc(C(c2ccc(Cl)cc2)N2CCN(Cc3nc(N4CCC(Cc5ccccc5)CC4)c4ccccc4n3)CC2)cc1` [Example 30-19], in the assay on MB468 (MB468), the EC50 was 4 to 6 µM. Turning to `CN(C)CCCC[C@H](Nc1nc(CN2CCN(C(c3ccc(Cl)cc3)c3ccc(Cl)cc3)CC2)nc2ccccc12)C(N)=O` [Example 47, 2(S)-(+)-2-(2-{4-[BIS-(4-CHLOROPHENYL)METHYL]PIPERAZIN-1-YLMETHYL}QUINAZOLIN-4-YLAMINO)-6-DIMETHYLAMINOHEXANAMIDE], the remaining activity at 2 µg/mL in assay [1] (setting [2]) is 40 to 80%. With `Clc1ccc(C(c2ccc(Cl)cc2)N2CCN(Cc3nc(N4CCN(c5ccccc5)CC4)c4ccccc4n3)CC2)cc1` [Example 30-15], the EC50 with MB468 (MB468) was 4 to 6 µM. For the molecule `CC(C)COC(=O)[C@H](CCCN(C)C)Nc1nc(CN2CCN(C(c3ccc(Cl)cc3)c3ccc(Cl)cc3)CC2)nc2ccccc12` [Example 45, 2(S)-(−)-2-(2-{4-[BIS-(4-CHLOROPHENYL)METHYL]PIPERAZIN-1-YLMETHYL}QUINAZOLIN-4-YLAMINO)-5-DIMETHYLAMINOPENTANOIC ACID ISOBUTYL ESTER], the remaining activity at 2 µg/mL in assay [1] (setting [2]) is over 80%.

Regarding `Clc1ccc(C(c2ccc(Cl)cc2)N2CCN(Cc3nc(N4CCc5ccccc5C4)c4ccccc4n3)CC2)cc1` [Example 30-12], the EC50 in the assay on MB468 (MB468) is over 6 µM. As for `CN(Cc1ccccc1)c1nc(CN2CCN(C(c3ccc(Cl)cc3)c3ccc(Cl)cc3)CC2)nc2ccccc12` [Example 30-11], the EC50 in the assay with MB468 (MB468) is over 6 µM.
